Assay results from patent US7435837B2, “Dihydrobenzofuranyl alkanamine derivatives and methods for using same” (Wyeth, priority 2003, dated 2008).
pEC50: −log10 of the molar value.

Biological target: T1, human 5-HT2C receptor (Homo sapiens, UniProt P28335)
T1 sequence (P28335 33-458): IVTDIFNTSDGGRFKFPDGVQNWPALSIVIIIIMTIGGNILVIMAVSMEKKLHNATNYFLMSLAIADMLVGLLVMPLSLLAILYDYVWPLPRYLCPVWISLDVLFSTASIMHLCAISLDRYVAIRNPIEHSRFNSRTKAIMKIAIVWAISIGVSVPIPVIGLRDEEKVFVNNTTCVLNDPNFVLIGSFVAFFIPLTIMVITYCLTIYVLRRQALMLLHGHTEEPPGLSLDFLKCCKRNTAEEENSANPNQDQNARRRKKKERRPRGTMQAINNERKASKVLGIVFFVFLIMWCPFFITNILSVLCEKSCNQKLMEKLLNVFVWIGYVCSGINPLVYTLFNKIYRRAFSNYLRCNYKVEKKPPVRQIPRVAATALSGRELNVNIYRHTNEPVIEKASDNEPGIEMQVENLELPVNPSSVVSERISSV
Assay: 5-HT2C receptor-stimulated calcium mobilization (FLIPR) in CHO cells;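 also: Fluo-3-AM fluorescence read on FLIPR every 1 s, agonist added after 10 baseline reads, response taken as peak minus lowest raw fluorescence count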
Format: cell-based
Conditions: for Emax: CHO, read-out: 5-HT2C Function Emax (%); for Emax / 5-HT2C Function Emax (%): percentage of the response observed with a maximally effective concentration of 5-HT; for pEC50: calcium mobilization, CHO cells stably expressing human 5-HT2C, read-out: 5-HT2C Function EC50

Compound	Emax [%]	pEC50	5-HT2C Function Emax (%)
CNCC1Cc2cc(Cl)cc(-c3cccc(Cl)c3Cl)c2O1 (racemic) [Example 464, (±)-{[5-chloro-7-(2,3-dichlorophenyl)-2,3-dihydro-1-benzofuran-2-yl]methyl}methylamine]	70	6.34	
Fc1cc2c(c(-c3c(Cl)cccc3Cl)c1)OC(CNC1CCC1)C2 (racemic) [Example 233, (±)-N-{[7-(2,6-dichlorophenyl)-5-fluoro-2,3-dihydro-1-benzofuran-2-yl]methyl}cyclobutanamine]	20	6.21	
CNCC1Cc2cc(Cl)cc(-c3ccc(Cl)cc3Cl)c2O1 (racemic) [Example 468, (±)-{[5-chloro-7-(2,4-dichlorophenyl)-2,3-dihydro-1-benzofuran-2-yl]methyl}methylamine]	80	7.14	
CNCC1Cc2cc(C)cc(-c3cccc(OC)c3OC)c2O1 (single isomer, unassigned; (+)) [Example 566, (+)-{[7-(2,3-dimethoxyphenyl)-5-methyl-2,3-dihydro-1-benzofuran-2-yl]methyl}methylamine]	70	8.52	
CNCC1Cc2cc(F)cc(-c3cccc(OC)c3OC)c2O1 (racemic) [Example 444, (±)-{[7-(2,3-dimethoxyphenyl)-5-fluoro-2,3-dihydro-1-benzofuran-2-yl]methyl}methylamine]	80	7.43	
CNCC1Cc2cc(F)cc(-c3c(Cl)cccc3Cl)c2O1 (single isomer, unassigned; (+)) [Example 543, (+){[7-(2,6-dichlorophenyl)-5-fluoro-2,3-dihydro-1-benzofuran-2-yl]methyl}methylamine]		9.70	100
COc1cccc(-c2cc(C)cc3c2OC(CN)C3)c1OC (single isomer, unassigned; (+)) [Example 296, (+)-{[7-(2,3-dimethoxyphenyl)-5-methyl-2,3-dihydro-1-benzofuran-2-yl]methyl}amine]		7.30	80
Cc1cccc(C)c1-c1cc(Cl)cc2c1OC(CN1CCCC1)C2 (racemic) [Example 280, (±)-1-{[5-chloro-7-(2,6-dimethylphenyl)-2,3-dihydro-1-benzofuran-2-yl]methyl}pyrrolidine]	70	6.54	
CNCC1Cc2cc(C)cc(-c3cccc(OC)c3OC)c2O1 (single isomer, unassigned; (-)) [Example 567, (−)-{[7-(2,3-dimethoxyphenyl)-5-methyl-2,3-dihydro-1-benzofuran-2-yl]methyl}methylamine]		8.05	60
CNCC1Cc2cccc(-c3ccc(F)cc3F)c2O1 (racemic) [Example 424, (±)-[(N-methyl-1-[7-(2,4-difluorophenyl)-2,3-dihydro-1-benzofuran-2-yl]methanamine]	90	7.31	
CNCC1Cc2cccc(-c3cc(Cl)ccc3OC)c2O1 (racemic) [Example 430, (±)-[(N-methyl-1-[7-(5-chloro-2-methoxyphenyl)-2,3-dihydro-1-benzofuran-2-yl]methanamine]	80	6.35	
Fc1cc2c(c(-c3c(Cl)cccc3Cl)c1)OC(CN1CCOCC1)C2 (racemic) [Example 239, (±)-1-{[7-(2,6-dichlorophenyl)-5-fluoro-2,3-dihydro-1-benzofuran-2-yl]methyl}morpholine]	40	5.84	
Fc1cc2c(c(-c3c(Cl)cccc3Cl)c1)OC(CNCC1CC1)C2 (racemic) [Example 232, (±)-1-cyclopropyl-N-{[7-(2,6-dichlorophenyl)-5-fluoro-2,3-dihydro-1-benzofuran-2-yl]methyl}methanamine]	50	6.94	
Cc1cccc(C)c1-c1cc(Cl)cc2c1OC(CN(C)C)C2 (racemic) [Example 274, (±)-{[5-chloro-7-(2,6-dimethylphenyl)-2,3-dihydro-1-benzofuran-2-yl]methyl}dimethylamine]	70	6.48	
Cc1cccc(C)c1-c1cc(Cl)cc2c1OC(CNCC1CC1)C2 (racemic) [Example 268, (±)-N-{[5-chloro-7-(2,6-dimethylphenyl)-2,3-dihydro-1-benzofuran-2-yl]methyl}(cyclopropylmethyl)amine]	50	6.02	
CNCC1Cc2cccc(-c3c(C)cccc3C)c2O1 (racemic) [Example 432, (±)-[(N-methyl-1-[7-(2,6-dimethylphenyl)-2,3-dihydro-1-benzofuran-2-yl]methanamine]	80	7.14	
CCCNCC1Cc2cc(Cl)cc(-c3c(C)cccc3C)c2O1 (racemic) [Example 278, (±)-N-{[5-chloro-7-(2,6-dimethylphenyl)-2,3-dihydro-1-benzofuran-2-yl]methyl}propan-1-amine]	60	6.14	

Compound	Emax [%]	pEC50	5-HT2C Function Emax (%)
CNCC1Cc2cc(Cl)cc(-c3ccc(OC)cc3OC)c2O1 (racemic) [Example 469, (±)-{[5-chloro-7-(2,4-dimethoxyphenyl)-2,3-dihydro-1-benzofuran-2-yl]methyl}methylamine]	80	7.68	
CNCC1Cc2cc(F)cc(-c3cccc(OC)c3OC)c2O1 (single isomer, unassigned; (+)) [Example 569, (+)-{[7-(2,3-dimethoxyphenyl)-5-fluoro-2,3-dihydro-1-benzofuran-2-yl]methyl}methylamine]		8.22	60
CNCC1Cc2cccc(-c3ccc(OC)cc3OC)c2O1 (racemic) [Example 426, (±)-[(N-methyl-1-[7-(2,4-dimethoxyphenyl)-2,3-dihydro-1-benzofuran-2-yl]methanamine]	100	7.77	
CNCC1Cc2cc(F)cc(-c3c(C)cccc3C)c2O1 (racemic) [Example 453, (±)-{[7-(2,6-dimethylphenyl)-5-fluoro-2,3-dihydro-1-benzofuran-2-yl]methyl}methylamine]	80	7.62	
CNCC1Cc2cc(F)cc(-c3cccc(OC)c3OC)c2O1 (single isomer, unassigned; (-)) [Example 568, (−)-{[7-(2,3-dimethoxyphenyl)-5-fluoro-2,3-dihydro-1-benzofuran-2-yl]methyl}methylamine]	80	8.40	
COc1cccc(-c2cc(F)cc3c2OC(CN)C3)c1OC (single isomer, unassigned; (+)) [Example 214, (+)-{[7-(2,3-dimethoxyphenyl)-5-fluoro-2,3-dihydro-1-benzofuran-2-yl]methyl}amine]		7.10	70
CNCC1Cc2cccc(-c3c(Cl)cccc3Cl)c2O1 (single isomer, unassigned; (+)) [Example 435, (+)-{[7-(2,6-dichlorophenyl)-2,3-dihydro-1-benzofuran-2-yl]methyl}methylamine]		7.09	80
CNCC1Cc2cc(Cl)cc(-c3cc(F)ccc3F)c2O1 (racemic) [Example 470, (±)-{[5-chloro-7-(2,5-difluorophenyl)-2,3-dihydro-1-benzofuran-2-yl]methyl}methylamine]	70	6.54	
CNCC1Cc2cc(F)cc(-c3ccc(Cl)cc3Cl)c2O1 (single isomer, unassigned; (+)) [Example 447]		8.52	90
CNCC1Cc2cc(F)cc(-c3c(Cl)cccc3Cl)c2O1 (single isomer, unassigned; (-)) [Example 544, (−){[7-(2,6-dichlorophenyl)-5-fluoro-2,3-dihydro-1-benzofuran-2-yl]methyl}methylamine]		7.14	70
CNCC1Cc2cc(Cl)cc(-c3c(C)cccc3C)c2O1 (single isomer, unassigned; (+)) [Example 565, (+)-{[5-chloro-7-(2,6-dimethylphenyl)-2,3-dihydro-1-benzofuran-2-yl]methyl}methylamine]		6.54	70
Fc1cc2c(c(-c3c(Cl)cccc3Cl)c1)OC(CNC1CC1)C2 (racemic) [Example 231, (±)-N-{[7-(2,6-dichlorophenyl)-5-fluoro-2,3-dihydro-1-benzofuran-2-yl]methyl}cyclopropanamine]	80	9.40	
CNCC1Cc2cccc(-c3cccc(F)c3F)c2O1 (racemic) [Example 437, (±)-[(N-methyl-1-[7-(2,3-difluorophenyl)-2,3-dihydro-1-benzofuran-2-yl]methanamine]	80	7.52	
Fc1cc2c(c(-c3c(Cl)cccc3Cl)c1)OC(CN1CCCCC1)C2 (racemic) [Example 238, (±)-1-{[7-(2,6-dichlorophenyl)-5-fluoro-2,3-dihydro-1-benzofuran-2-yl]methyl}piperidine]	40	6.28	
CCNCC1Cc2cc(Cl)cc(-c3c(C)cccc3C)c2O1 (racemic) [Example 271, (±)-N-{[5-chloro-7-(2,6-dimethylphenyl)-2,3-dihydro-1-benzofuran-2-yl]methyl}ethanamine]	90	6.23	
CNCC1Cc2cc(Cl)cc(-c3cc(Cl)ccc3OC)c2O1 (racemic) [Example 472, (±)-{[5-chloro-7-(5-chloro-2-methoxyphenyl)-2,3-dihydro-1-benzofuran-2-yl]methyl}methylamine]	80	6.45	
